Test results from patent publication US12636299B2, “Terpenoid derivatives, pharmaceutical preparations containing these derivatives and their use in neuroprotection” (UNIVERZITA PALACKEHO V OLOMOUCI, priority 2020, dated 2026).

How the values were obtained:
[1] = test system: superoxide radical formation; assay: Oxidative stress (superoxide radical formation, DHE) in 3NPA-induced model on SH-SY5Y; assay type: cell-based, human; settings: for Superoxide radical formation (oxidative stress) %: 20 mM 3NPA = 100%, 24 hours
Experimental: Similarly, to previous assay, cells grown on 96-multiwell plates at density 20000 cells per well underwent differentiation and treatment procedure with 3-nitropropionic acid (3NPA) in this model. After 24 hours of co-treatment with 20 mM 3NPA, superoxide radical's formation as a marker of oxidative stress was quantified by dihydroethidium according to Kim et al. (2017, J. Med. Food, 20, 140-151). Briefly, neuron-like SH-SY5Y cells were centrifuged at 500 g for 5 min and 30 s, then media were replaced by 10 μM DHE PBS solution and kept at room temperature for 30 min. After that, DHE was read at 500 nm/580 nm (excitation/emission) by Infinite M200 Pro (Tecan) microplate reader. DHE is cell permeable dye which is selective for superoxide radical detection. Overall oxidative stress achieved by 20 mM 3NPA was consider as 100% and thus the reduction in superoxide radical's formation (OS reducing effect) was determined. As shown in Table 6 and FIG. 2, 20 mM 3NPA induced 2.7-fold increase in superoxide radical's formation.

[2] = test system: SH-SY5Y human neuroblastoma cell line; assay: Cytotoxicity, Calcein AM viability assay on neuron-like SH-SY5Y cells; assay type: cell-based; settings: 24 h
Experimental: The SH-SY5Y human neuroblastoma cell line obtained from ECACC (The European Collection of Authenticated Cell Cultures) was cultivated in Dulbecco's modified Eagle's Medium and Ham's F12 Nutrient Mixture (DMEM:F-12, 1:1), supplemented with 10% fetal bovine serum (FBS) and 1% penicillin and streptomycin at 37° C. in a humidified atmosphere 5% CO2, 95% humidity in passage limit up to ECACC+20. The assay was performed in 96-well microplate with 7000 SH-SY5Y cells per well. After 48 h, old DMEM/F12 media was removed by fresh media containing tested compounds at 0.1, 1 and 10 μM concentrations for 24 h. Glial cell line A-172 purchased from ATCC and grown in same conditions as SH-SY5Y cell line. A-172 cells were seeded in density 2000 cells per well and growing medium was replaced by treatment medium containing tested compounds in 0.1, 1 and 10 μM concentration; or in higher concentrations for R-LA or NAC positive controls for 48 hours. All tested compounds dissolved in DMSO were added into the medium. The maximum concentration of DMSO in media was kept below 0.1% (v/v). The cell viability was measured by Calcein AM (1 mg/ml ThermoFisher) viability assay. Solution of Calcein AM in PBS (0.75 μM) was pipetted to cells and incubated for 50 min. After that the fluorescence was measured at 488/517 nm (excitation/emission) using microplate reader Infinite M200 (TECAN). Calcein AM assay is based on the dye-intracellular-esterase cleavage of non-fluorescent dye (Calcein AM) by living cells to fluorescent dye (Calcein), while dying cells lose such ability. The values in Table 2 show the % of viability compared to control for all tested compounds. The results from DMSO control (medium with DMSO, <0.1% (v/v)) was postulated as 100% viability (see the first line of Table 2).

[3] = test system: human neuroblastoma cell line SH-SY5Y; assay: Viability of differentiated SH-SY5Y in salsolinol-induced model of PD (Calcein AM); assay type: cell-based; settings: for Neuroprotective effect (% of control): difference between 800 μM SAL and co-treatment group means
Experimental: Similarly, as in previous “Safety test”, the SH-SY5Y cells were seeded at density 7000 cells/well. After 48 h differentiation, old 1% DMEM/F12 media was replaced by fresh media containing 800 μM salsolinol (SAL) and tested compounds in 0.1, 1 and 10 μM concentrations. N-acetylcystein were chosen as positive control. After 24 hours, the cell viability was measured by Calcein AM viability assay. The values in Table 2 show % of viability of all tested compounds relative to control. The control (medium with DMSO, <0.1% (v/v)) was postulated as 100% viability (see the first line of the table), while the SAL exposure lead to decrease of viability to 65.4±0.97%.

caspase-3,7 activity = assay: Caspase-3,7 activity in salsolinol-induced model of PD on SH-SY5Y (Ac-DEVD-AMC); assay type: cell-based, human; settings: for Caspase-3,7 activity (% of 800 μM SAL control): percentages of control (800 μM SAL = 100), 24 hour co-treatment; for reduction of caspase-3,7 activity, in words: 800 μM SAL, compounds 3 and 4 at 10 μM compared with NAC
Experimental: Similarly, as shown in previous assay, cells grew on 96 multiwell plates at density 20000 cells per well underwent differentiation and treatment procedure for salsolinol model. After 24 hour co-treatment with salsolinol, caspase-3,7 (casp-3,7) activity as marker of apoptosis was quantified by its substrate Ac-DEVD-AMC according to Carrasco et al. (2003, BioTechniques, 34, 1064-1067). In this model, overall casp-3,7 activity induced by 800 μM SAL was consider as 100% and thus the reduction in casp-3,7 was observed after treatment with the protective terpenoid derivatives. As shown in Table 4 and FIG. 2, 800 μM SAL induced 2.9-fold increase.

[4] = test system: human neuron-like SH-SY5Y cells; assay: 3NPA-induced model of Huntington's disease, neuron-like SH-SY5Y cells; assay type: cell-based; settings: difference to 20 mM 3NPA, 48 h
Experimental: (§1) Before application of toxin 3-nitropropionic acid (3NPA) for mimicking Huntington's disease, the 3NPA was dissolved in water and neutralized by sodium hydroxide. SH-SY5Y cells were seeded in the same density and differentiated by the procedure shown above. Astrocyte cells A-172 were also seeded as described in previous section. Both cell lines were co-treated by 3NPA (20 mM for SH-SY5Y cells, […]) and tested compounds at 0.1, 1 and 10 μM concentration for 48 h.

astrocyte A-172 cells = assay: 3NPA-induced model of Huntington's disease, astrocyte A-172 cells; assay type: cell-based, human; settings: for Astro-protective effect (% of control): difference to 10 mM 3NPA, 48 h
Experimental: as §1

glial A-172 cells = assay: Cytotoxicity, Calcein AM viability assay on glial A-172 cells; assay type: cell-based, human; settings: 48 hours

SMILES: O=C(O)CC[N+](=O)[O-] [Compound 3NPA, 3-nitropropionic acid, reference compound]
- increase in superoxide radical's formation ([1]; 20 mM 3NPA versus DMSO control): 2.7 fold

SMILES: C=C(C(=O)OCc1ccco1)C1CCC2(COC(C)=O)CCC3(C)C(CCC4C5(C)CCC(OC(C)=O)C(C)(C)C5CCC43C)C12 (stereo not drawn) [Compound 5, Furan-2-yl-methyl 3β,28-diacetyloxylup-20(29)-en-30-oate]
- viability, percentage of DMSO control ([2]; 0.1 μM): 91.9%
- viability, percentage of DMSO control ([2]; 1 μM): 106.4%
- viability, percentage of DMSO control ([2]; 10 μM): 129.5%
- Neuroprotective effect (% of control) ([3]; 0.1 μM, 24 hours): N/A (N/A = no protection)
- Neuroprotective effect (% of control) ([3]; 1 μM, 24 hours): N/A (N/A = no protection)
- Neuroprotective effect (% of control) ([3]; 10 μM, 24 hours): 18.96 % of control
- effect on SH-SY5Y viability in salsolinol model, in words ([3]; 800 μM salsolinol, comparison with NAC): better effect than 1000 μM NAC
- Caspase-3,7 activity (% of 800 μM SAL control) (caspase-3,7 activity; 1 μM): 86.8%
- Caspase-3,7 activity (% of 800 μM SAL control) (caspase-3,7 activity; 10 μM): 76.5%
- reduction of caspase-3,7 activity, in words (caspase-3,7 activity): positive effect on casp-3,7 activity
- efficacy relative to positive controls (by used concentration) (caspase-3,7 activity; caspase-3,7 activity, salsolinol model): 10 fold
- Neuro-protective effect (% of control) ([4]; 0.1 μM): N/A (N/A = no protection)
- Neuro-protective effect (% of control) ([4]; 1 μM): N/A (N/A = no protection)
- Neuro-protective effect (% of control) ([4]; 10 μM): 20.63 % of control
- Astro-protective effect (% of control) (astrocyte A-172 cells; A-172, 0.1 μM): N/A (N/A = no protection)
- Astro-protective effect (% of control) (astrocyte A-172 cells; A-172, 1 μM): 12.87 % of control
- Astro-protective effect (% of control) (astrocyte A-172 cells; A-172, 10 μM): 14.05 % of control
- protective effect on astrocytes in 3NPA model, in words (astrocyte A-172 cells; A-172 cells, comparison with R-LA): positive effect comparable to R-LA control
- Superoxide radical formation (oxidative stress) % ([1]; 0.1 μM): 94.1%
- Superoxide radical formation (oxidative stress) % ([1]; 1 μM): 87.3%
- Superoxide radical formation (oxidative stress) % ([1]; 10 μM): 87.1%
- viability, percentage of DMSO control (glial A-172 cells; 0.1 μM): 96.6%
- viability, percentage of DMSO control (glial A-172 cells; 1 μM): 100.0%
- viability, percentage of DMSO control (glial A-172 cells; 10 μM): 90.8%

SMILES: C=C(C(=O)OCc1cccs1)C1CCC2(COC(C)=O)CCC3(C)C(CCC4C5(C)CCC(OC(C)=O)C(C)(C)C5CCC43C)C12 (stereo not drawn) [Compound 6, Thiophen-2-ylmethyl 3β,28-diacetyloxy-lup-20(29)-en-30-oate]
- viability, percentage of DMSO control ([2]; 0.1 μM): 92.1%
- viability, percentage of DMSO control ([2]; 1 μM): 96.2%
- viability, percentage of DMSO control ([2]; 10 μM): 113.5%
- Neuroprotective effect (% of control) ([3]; 0.1 μM, 24 hours): N/A (N/A = no protection)
- Neuroprotective effect (% of control) ([3]; 1 μM, 24 hours): N/A (N/A = no protection)
- Neuroprotective effect (% of control) ([3]; 10 μM, 24 hours): 7.38 % of control
- Caspase-3,7 activity (% of 800 μM SAL control) (caspase-3,7 activity; 1 μM): 93.2%
- Caspase-3,7 activity (% of 800 μM SAL control) (caspase-3,7 activity; 10 μM): 88.3%
- reduction of caspase-3,7 activity, in words (caspase-3,7 activity): positive effect on casp-3,7 activity
- Neuro-protective effect (% of control) ([4]; 0.1 μM): N/A (N/A = no protection)
- Neuro-protective effect (% of control) ([4]; 1 μM): N/A (N/A = no protection)
- Neuro-protective effect (% of control) ([4]; 10 μM): 20.53 % of control
- Astro-protective effect (% of control) (astrocyte A-172 cells; A-172, 0.1 μM): 4.27 % of control
- Astro-protective effect (% of control) (astrocyte A-172 cells; A-172, 1 μM): 4.57 % of control
- Astro-protective effect (% of control) (astrocyte A-172 cells; A-172, 10 μM): 7.45 % of control
- Superoxide radical formation (oxidative stress) % ([1]; 0.1 μM): 92.2%
- Superoxide radical formation (oxidative stress) % ([1]; 1 μM): 89.9%
- Superoxide radical formation (oxidative stress) % ([1]; 10 μM): 88.0%
- viability, percentage of DMSO control (glial A-172 cells; 0.1 μM): 99.9%
- viability, percentage of DMSO control (glial A-172 cells; 1 μM): 98.4%
- viability, percentage of DMSO control (glial A-172 cells; 10 μM): 96.2%

SMILES: O=C(O)CCCC[C@@H]1CCSS1 [R-LA, R-lipoic acid, reference compound]
- Astro-protective effect (% of control) (astrocyte A-172 cells; A-172, column head 0.5 μM (positive controls)): N/A (N/A = no protection)
- Astro-protective effect (% of control) (astrocyte A-172 cells; A-172, column head 5 μM (positive controls)): 13.27 % of control
- Astro-protective effect (% of control) (astrocyte A-172 cells; A-172, column head 50 μM (positive controls)): 14.87 % of control

SMILES: C[C@@H]1NCCc2cc(O)c(O)cc21 [SAL, salsolinol, reference compound]
- viability relative to DMSO control after SAL exposure ([3]; 800 μM salsolinol alone, 24 hours): 65.4±0.97%
- increase of caspase-3,7 activity (caspase-3,7 activity; 800 μM SAL versus DMSO control): 2.9 fold
